Data as given in US12325744B2, “Methods for reducing post-operative cognitive dysfunction (POCD)” (The Kennedy Trust for Rheumatology Research, priority 2010, dated 2025).

Test system: IL-1β
Experiment: Plasma (systemic) IL-1β by ELISA after tibial surgery
Type: in vivo
Conditions: wild type mice, minocycline 40 mg/kg i.p., enrofloxacin 10 mg/kg or IL-1Ra 100 mg/kg given prior to surgery, vs surgery alone
Text: Mice were subjected to an open tibial fracture of the left hind paw with intramedullary fixation in aseptic conditions under general anaesthesia with isoflurane and analgesia with buprenorphineas previously described^18. Other groups of animals were not subjected to any intervention (naïve), or received anesthetic/analgesia alone, or underwent surgery with concurrent administration of minocycline, enrofloxacin, or IL-1 receptor antagonist (IL-1Ra). (For further details please refer to supplemental methods).
IL-6, TNF-α and IL-1β were measured by ELISA^19 (Biosource, CA; Bender Medsystem, CA, respectively). Hippocampal IL-1β was measured by ELISA (Bender Medsystem, CA), as previously described^20. To confirm reliability of dilution linearity and spike recovery cytokine measurement were also performed in mice in which inflammation was induced with i.p. LPS (0111:B4, Invivogen, CA). (For further details please refer to supplemental methods).
Mice were randomly assigned to the following groups: surgery under general anesthesia (S), surgery under general anesthesia plus minocycline (M), surgery under general anesthesia plus enrofloxacin (E), surgery under general anesthesia plus interleukin-1 receptor antagonist (IL-1Ra) (I), surgery in IL1R^−/− mice under general anesthesia (K), general anesthesia without surgery (A), and no intervention (naïve wild-type, or naïve IL1R^−/−). Under aseptic conditions, groups of mice were subjected to an open tibial fracture of the left hind paw with an intramedullary fixation as previously described^2. Briefly, isoflurane (Abbot Laboratories Ltd., Queensborough, Kent, UK) 2.1% in air (1.5 MAC)^3 and buprenorphine (Reckitt Benckiser Healthcare Ltd, Hull, UK) 0.1 mg/kg subcutaneously (sc), were given to provide both surgical anesthesia and extended post-operative analgesia for the surgical intervention and post-surgical recovery. After shaving the overlying skin and disinfecting with chlorhexidine gluconate 0.5% and isopropyl alcohol 70% (PDI, Orangeburg, NY, USA) a fracture of the tibial shaft was created under direct vision. […]

Q: `CCN1CCN(c2cc3c(cc2F)c(=O)c(C(=O)O)cn3C2CC2)CC1` [enrofloxacin, reference compound] was tested. Which “Plasma IL-1β after surgery, effect of treatment” value did it give?
A: Its value is “exerted no effect on IL-1β plasma concentration”.

Q: And the “Plasma IL-1β after surgery, effect of treatment” value (listed as Enrofloxacin)?
A: The value was “failed to reduce plasma levels of IL-1β”.
